Experimental findings from paper PMC10359276, “Involvement of skin TRPV3 in temperature detection regulated by TMEM79 in mice” (Nature Communications, 2023) are described below.

This experiment has as its target TRPV3 (mTRPV3) (Mus musculus, UniProt Q8K424). The experiment is described as follows: cell-based.

Sequence of TRPV3 (mTRPV3) (Q8K424 whole entry): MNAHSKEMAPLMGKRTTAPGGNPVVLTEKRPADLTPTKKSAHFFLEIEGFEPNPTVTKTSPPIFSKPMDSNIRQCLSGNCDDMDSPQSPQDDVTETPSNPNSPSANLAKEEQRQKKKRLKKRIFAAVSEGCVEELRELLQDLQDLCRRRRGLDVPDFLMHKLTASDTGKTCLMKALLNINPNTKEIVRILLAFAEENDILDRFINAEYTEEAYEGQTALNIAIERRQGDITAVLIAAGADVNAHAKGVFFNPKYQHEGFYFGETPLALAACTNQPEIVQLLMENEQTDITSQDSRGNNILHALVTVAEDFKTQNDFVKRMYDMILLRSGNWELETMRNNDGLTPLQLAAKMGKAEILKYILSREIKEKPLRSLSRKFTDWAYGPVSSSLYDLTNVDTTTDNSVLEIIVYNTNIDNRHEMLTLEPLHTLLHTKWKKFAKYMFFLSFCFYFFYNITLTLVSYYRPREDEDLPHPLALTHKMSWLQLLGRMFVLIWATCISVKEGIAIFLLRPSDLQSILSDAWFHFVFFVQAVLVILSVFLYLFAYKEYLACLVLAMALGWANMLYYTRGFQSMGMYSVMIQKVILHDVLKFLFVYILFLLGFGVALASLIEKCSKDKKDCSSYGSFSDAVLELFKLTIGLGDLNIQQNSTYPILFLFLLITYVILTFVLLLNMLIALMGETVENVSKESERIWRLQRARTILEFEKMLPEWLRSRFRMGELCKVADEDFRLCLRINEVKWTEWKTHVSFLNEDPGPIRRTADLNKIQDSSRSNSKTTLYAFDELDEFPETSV

For the molecule `NCCOB(c1ccccc1)c1ccccc1` [2-APB], the response was half-maximal at 57.4 ± 3.2 µM (EC50).
